Molecular target: T1, Ubiquitin Specific Protease 7 (USP-7) (Homo sapiens, UniProt Q93009)
T1 construct: gene USP7; recombinant USP-7 (BPS Bioscience kit #79256)
Assay: Ub-AMC fluorescence enzyme assay; supported by DARTS immunoblotting and t-LiP-MRM in HTLA-230 lysate
Format: biochemical

T1 sequence (Q93009 whole entry): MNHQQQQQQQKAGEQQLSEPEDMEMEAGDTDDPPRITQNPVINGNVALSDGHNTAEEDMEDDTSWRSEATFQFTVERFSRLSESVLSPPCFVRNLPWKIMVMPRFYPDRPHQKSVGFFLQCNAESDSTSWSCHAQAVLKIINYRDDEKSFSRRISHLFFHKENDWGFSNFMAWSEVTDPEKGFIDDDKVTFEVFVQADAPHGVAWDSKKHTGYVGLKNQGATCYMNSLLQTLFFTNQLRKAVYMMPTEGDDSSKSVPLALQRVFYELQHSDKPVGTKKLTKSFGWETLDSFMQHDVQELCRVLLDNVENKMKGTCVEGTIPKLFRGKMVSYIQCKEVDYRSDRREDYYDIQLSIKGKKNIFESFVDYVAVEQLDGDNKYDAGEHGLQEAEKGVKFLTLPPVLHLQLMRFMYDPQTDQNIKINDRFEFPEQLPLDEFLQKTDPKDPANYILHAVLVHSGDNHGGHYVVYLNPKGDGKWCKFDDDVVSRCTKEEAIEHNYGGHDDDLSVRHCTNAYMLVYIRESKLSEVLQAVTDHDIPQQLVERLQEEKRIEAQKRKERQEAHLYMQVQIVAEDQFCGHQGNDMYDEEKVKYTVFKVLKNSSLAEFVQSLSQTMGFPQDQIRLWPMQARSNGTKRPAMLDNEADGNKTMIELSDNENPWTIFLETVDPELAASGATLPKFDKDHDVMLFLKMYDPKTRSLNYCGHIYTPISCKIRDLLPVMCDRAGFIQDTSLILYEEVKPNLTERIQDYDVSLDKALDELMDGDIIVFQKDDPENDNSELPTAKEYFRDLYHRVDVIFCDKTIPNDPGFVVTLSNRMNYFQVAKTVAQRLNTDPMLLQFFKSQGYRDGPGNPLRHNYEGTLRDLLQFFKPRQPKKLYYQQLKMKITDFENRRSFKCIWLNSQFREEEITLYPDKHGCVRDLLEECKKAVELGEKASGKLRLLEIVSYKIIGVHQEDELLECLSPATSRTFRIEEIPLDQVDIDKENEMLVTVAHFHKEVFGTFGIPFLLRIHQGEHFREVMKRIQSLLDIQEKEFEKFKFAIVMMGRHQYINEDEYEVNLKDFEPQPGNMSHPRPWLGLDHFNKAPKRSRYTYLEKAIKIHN

With `CCOC(=O)c1cnn(CC(C)O)c1NC(=O)Nc1cccc(F)c1` (racemic) [STIRUR 41] the IC50 was 2770 ± 560 nM.
